Measured values reported in patent USRE36385E, “Glucopyranose derivatives” (Ono Pharmaceutical Co., Ltd., priority 1985, dated 1999).

Legend:
lympha cells = experiment: Mitogenic activity in vitro (Blastogenic index); type: cell-based, C3H/He male mice; conditions: Mus musculus, Lymphocyte; terminal concentration 1 μg/ml; ratio of 3H-tymidine uptake vs blank control; read-out: Blastgenic Index
Protocol: (1) Mitogenic activity in vitro
Mitogenic activity means activity of activating mitogenic cell division, and in this test system, the amount of tymidine taken into lympha cells was measured and a ratio determined against a blank control call (Blastogenic index) was calculated.
For example, adding the compound prepared in example 1(c) to the test system induced 30 times the amount of tymidine taken into the lympha cells versus the control.
The amounts were measured by density of a radiolabel.
Mytogenic activity in vitro was measured by the following method (See Procedure Method of Immunoexperiment pp 315 published by Japan Immunology Society).
C3H/He male mice 6 weeks old were killed by bloodletting, and their spleens were isolated and homogenized. Homogenizing liquids were filtered with gauze, and suspending cells were prepared with PBS solution. After washing, lymphacytes fractions were gathered with lympholight M. Lymphacytes were suspended in RPMI 1640 cultivation solution (10% FEBS), and the solution was divided into 5×10^5 cells/180 μl/wells. Ten times concentration of the terminal concentration (1 μg/ml) of the compounds of the present invention were added with 20 μl portions to each of the wells.
After cultivation, ^3 H-tymidine 0.5 μCi/20 μl was added to the each cells. Cultivation was continued at 37° C. for another 24 hrs, and amounts of ^3 H-tymidine taken into the cells were measured. Mitogenic activities were calculated as by Blastogenic index in as follows. [formula]

RLδ1 tumor = experiment: Anti-tumor effect on Balb/C mice inoculated with RLδ1 tumor; type: in vivo, female Balb/C mice; conditions: for Survival period: Day 10, day ± standard error; for Appearent tumor weight: g ± standard error
Protocol: (2) Anti-tumor effect on Balb/C mice inoculated with RLδ1 tumor.
Tumor cells which had been maintained in ascites of Balb/C mouse generation after generation was used. One group is consisting of six female balb/C mice. RLδ1 tumor (1×10^5 cells/0.05 ml) was inoculated into left side of female mice of 6-week old (body weight: 18~20 g). Ten days after, when tumore size came to 7~10 mm, compound of example No. 1(1) or 1(t) was administered by i.p. route (Day 10). Dose of test compound was 1 and 3 mg/body dand each test compound solution volume was 10 ml/kg. Antitumore effect is estimated by survival period and tumor appearent weight.
Test results about survival period and tumor apparent weight are shown in the following Tables II(3) and II(4), respectively.

Meth-A sarcoma = experiment: Anti-tumor effect on Balb/C mice inoculated with Meth-A Sarcoma; type: in vivo, female Balb/C mice; conditions: for Apperarent tumor weight: g ± standard error; for effect on prolongation of life / effect on tumore regression: at the dose of 3 mg/kg; for Survival period: iv tail vein Day 7, 9, 12, day ± standard error
Protocol: (1) Anti-tumor effect on Balb/C mice inocudlated with Meth-A Sarcoma
Anti-tumor effect was measured by the following procedure.
Tumor cells which had been maintained in ascites of Balb/C mouse generation after generation was used. One group is consisting of eight female Balb/C mice. Meth-A sarcoma tumor (1×10^5 cells/0.05 ml) was inoculated into left side of female mice of 7-week old (body weight: 18-20 g). Seven day after, when tumor size came to 6~9 mm, test compound was administered into tail vein first (day 7) and then administered two times (total three times: Day 7, 9, 12). Dose of test compound is 3 and 10 mg/kg or 3, 10 and 30 mg/kg and each test compound solution volume was 10 ml/kg. Anti-tumor effect is estimated by survival period (from inoculation day to death day) and tumor apparent weight. [formula] Test results about survival period and tumor appearent weight are shown in the following Tables II(1) and II(2), respectively.
In experiments, statistic analysis was done with unpaired Student's t(two tailed)-test. […] P values lower than 0.05 were judged to be significant.

CCCCCCCCCCCC(CC(=O)N[C@H]1COC[C@@H](OS(=O)(=O)O)[C@@H]1OC(=O)CCCCCCCCc1ccccc1)OC(=O)CCCCCCCCc1ccccc1 (single isomer, unassigned) [3(c), 2-deoxy-2-[3-(9-phenylnonanoyl)oxytetradecanoyl]amino-3-O-(9-phenylnonanoyl)-4-O-sulfo-1,5-anhydro-D-xylitol]
fold induction at 1 µg/mL (lympha cells): 13.8

CCCCCCCCCCC[C@@H](CC(=O)N[C@H]1C(O)O[C@H](CO)[C@@H](OS(=O)(=O)O)[C@@H]1OC(=O)CCCCCCCCCCc1ccccc1)OC(=O)CCCCCCCCCCc1ccccc1 (stereo partly drawn) [1(f), 2-deoxy-2-[3S-(11-phenylundecanoyloxy)tetradecanoyl]amino-3-O-(11-phenylundecanoyl)-4-O-sulfo-D-glucopyranose]
fold induction at 1 µg/mL (lympha cells): 23

CCCCCCCCCCC[C@@H](CC(=O)N[C@H]1C(O)O[C@H](CO)[C@@H](OS(=O)(=O)O)[C@@H]1OC(=O)CCCCCCCOc1ccccc1)OC(=O)CCCCCCCOc1ccccc1 (stereo partly drawn) [1(l), 2-deoxy-2-[3S-(8-phenoxyoctanoyloxy)tetradecanoyl]amino-3-O-(8-phenoxyoctanoyl)-4-O-sulfo-D-glucopyranose]
Survival period (RLδ1 tumor; 1 mg/body ip): 47.3 ± 18.8 days
Survival period (RLδ1 tumor; 3 mg/body ip): 55.3 ± 16.4 days
effect on tumor regression (RLδ1 tumor; 3 mg/body, Day 14 (4 day after administration)): significant effect
Appearent tumor weight (RLδ1 tumor; dose 1 (mg/kg as printed) ip, Day 10 (first column)): 0.216 ± 0.043 g
Appearent tumor weight (RLδ1 tumor; dose 1 (mg/kg as printed) ip, second column printed Day 10): 0.234 ± 0.168 g
Appearent tumor weight (RLδ1 tumor; dose 1 (mg/kg) ip, Day 13): 0.351 ± 0.349 g
Appearent tumor weight (RLδ1 tumor; dose 3 (mg/kg as printed) ip, Day 10 (first column)): 0.216 ± 0.029 g
Appearent tumor weight (RLδ1 tumor; dose 3 (mg/kg as printed) ip, second column printed Day 10): 0.210 ± 0.192 g
Appearent tumor weight (RLδ1 tumor; dose 3 (mg/kg) ip, Day 13): 0.333 ± 0.375 g

CCCCCCCCCCC[C@@H](CC(=O)N[C@H]1C(O)O[C@H](CO)[C@@H](OS(=O)(=O)O)[C@@H]1OC(=O)CCCCCCCCc1cccc2ccccc12)OC(=O)CCCCCCCCc1cccc2ccccc12 (stereo partly drawn) [1(o), 2-deoxy-2-[3S-[9-(1-naphthyl)nonanoyloxy]tetradecanoyl]amino-3-O-[9-(1-naphthyl)nonanoyl]-4-O-sulfo-D-glucopyranose]
fold induction at 1 µg/mL (lympha cells): 17

O=C(CCCCCCCCc1cccc2ccccc12)N[C@H]1C(O)O[C@H](CO)[C@@H](OS(=O)(=O)O)[C@@H]1OC(=O)CCCCCCCCc1cccc2ccccc12 (stereo partly drawn) [1(u), 2-deoxy-2-[9-(1-naphthyl)nonanoyl]amino-3-O-[9-(1-naphthyl)nonanoyl]-4-O-sulfo-D-glucopyranose]
fold induction at 1 µg/mL (lympha cells): 10

CCCCCCCCCCOc1ccc(C(=O)N[C@H]2[C@@H](OC)O[C@H](CO)[C@@H](OS(=O)(=O)O)[C@@H]2OC(=O)c2ccc(OCCCCCCCCCC)c(OCCCCCCCCCC)c2)cc1OCCCCCCCCCC [4(b), Methyl 2-deoxy-2-(3,4-didecyloxybenzoyl)amino-3-O-(3,4-didecyloxybenzoyl)-4-O-sulfo-α-D-glucopyranoside]
Apperarent tumor weight (Meth-A sarcoma; 3 mg/kg iv, Day 7): 0.218 ± 0.028 g
Apperarent tumor weight (Meth-A sarcoma; 3 mg/kg iv, Day 10): 0.172 ± 0.094 g
Apperarent tumor weight (Meth-A sarcoma; 3 mg/kg iv, Day 13): 0.272 ± 0.181 g
Apperarent tumor weight (Meth-A sarcoma; 3 mg/kg iv, Day 16): 0.430 ± 0.459 g
Apperarent tumor weight (Meth-A sarcoma; 10 mg/kg iv, Day 7): 0.217 ± 0.022 g
Apperarent tumor weight (Meth-A sarcoma; 10 mg/kg iv, Day 10): 0.154 ± 0.042 g
Apperarent tumor weight (Meth-A sarcoma; 10 mg/kg iv, Day 13): 0.197 ± 0.068 g
Apperarent tumor weight (Meth-A sarcoma; 10 mg/kg iv, Day 16): 0.172 ± 0.141 g
effect on prolongation of life (Meth-A sarcoma): significant effect
effect on tumore regression (Meth-A sarcoma): significant effect
Survival period (Meth-A sarcoma; dose 3 (mg/kg)): 61.6 ± 18.0 days
Survival period (Meth-A sarcoma; dose 10 (mg/kg)): 65.8 ± 20.4 days

CCCCCCCCCCCCCC(=O)N[C@H]1C(O)O[C@H](CO)[C@@H](OS(=O)(=O)O)[C@@H]1OC(=O)c1ccc(OCCCCCCCCCC)c(OCCCCCCCCCC)c1 (stereo partly drawn) [4(c)]
Apperarent tumor weight (Meth-A sarcoma; 3 mg/kg iv, Day 7): 0.200 ± 0.044 g
Apperarent tumor weight (Meth-A sarcoma; 3 mg/kg iv, Day 10): 0.230 ± 0.084 g
Apperarent tumor weight (Meth-A sarcoma; 3 mg/kg iv, Day 13): 0.392 ± 0.176 g
Apperarent tumor weight (Meth-A sarcoma; 3 mg/kg iv, Day 16): 0.578 ± 0.274 g
Apperarent tumor weight (Meth-A sarcoma; 10 mg/kg iv, Day 7): 0.210 ± 0.025 g
Apperarent tumor weight (Meth-A sarcoma; 10 mg/kg iv, Day 10): 0.206 ± 0.053 g
Apperarent tumor weight (Meth-A sarcoma; 10 mg/kg iv, Day 13): 0.242 ± 0.086 g
Apperarent tumor weight (Meth-A sarcoma; 10 mg/kg iv, Day 16): 0.300 ± 0.193 g
Apperarent tumor weight (Meth-A sarcoma; 30 mg/kg iv, Day 7): 0.209 ± 0.023 g
Apperarent tumor weight (Meth-A sarcoma; 30 mg/kg iv, Day 10): 0.168 ± 0.062 g
Apperarent tumor weight (Meth-A sarcoma; 30 mg/kg iv, Day 13): 0.222 ± 0.152 g
Apperarent tumor weight (Meth-A sarcoma; 30 mg/kg iv, Day 16): 0.309 ± 0.259 g
effect on prolongation of life (Meth-A sarcoma): significant effect
effect on tumore regression (Meth-A sarcoma): significant effect
Survival period (Meth-A sarcoma; dose 3 (mg/kg)): 51.9 ± 8.2 days
Survival period (Meth-A sarcoma; dose 10 (mg/kg)): 58.3 ± 13.8 days
Survival period (Meth-A sarcoma; dose 30 (mg/kg)): 71.3 ± 16.1 days
